Data as given in patent US20230405001A1, “TREATMENT OR PREVENTION OF HIV INFECTION” (Janssen Sciences Ireland Unlimited Company, priority 2020, published 2023).

Legend:
[1] = Plasma kinetics in minipigs after single subcutaneous dosing, rilpivirine suspension with or without rHuPH20 (Example 1); type: in vivo; conditions: minipig
Method: Six minipigs with body weights ranging from 20 to 25 kg at the start of the study were used. The minipigs were fasted overnight before dosing. Three minipigs were dosed subcutaneously in the loin with 0.19 mL of the hyaluronidase solution (10,000 U/mL) followed by 900 mg/3 mL of the rilpivirine nanosuspension at the same injection site (treatment group A). Three minipigs were dosed subcutaneously in the loin with the 900 mg/3 mL of the control rilpivirine suspension (treatment group B—control). The injection volume was 3 mL rilpivirine suspension in both treatment groups. Method—Sequential Administration • 1. Flip-off rHuPH20 solution vial flip cap and wipe with isopropyl alcohol wipe. Allow to dry. Attach an 18 G transfer needle to a 1 mL syringe. • 2. Draw 0.35 mL into the syringe. • 3. Prime the syringe and set liquid level to 0.25 mL in the syringe. • 4. Remove transfer needle and attach syringe cap to 1 mL syringe. • 5. Mix rilpivirine by horizontally shaking the container 30 times over […] approximately 10 s (a back and forth arm movement=2 times). Ensure well mixed/fully re-suspended. • 6. Flip-off rilpivirine vial flip cap and wipe with isopropyl alcohol wipe. Allow to dry. • 7. Attach 18 G transfer needle to 5 mL syringe. • 8. Invert vial and draw>3.2 mL into 5 mL syringe mL (or as much as can be removed from vial). Injecting 1-2 mL of air will facilitate draw. • 9. Detach needle and attach a syringe cap to 5 mL syringe • 10. Invert syringe. Wait 5 minutes for bubbles to settle. • 11. Attach a winged infusion set to the rHuPH20 1 mL syringe. Invert syringe and prime off air so that liquid forms at the tip of the needle. (0.19 mL of rHuPH20 should be in the line) • 12. Insert the winged infusion set into the subcutaneous tissue of the target injection site by pinching the skin and inserting the needle at a 30-45 degree angle. • 13. Release the pinch. • 14. UNSCREW rHuPH20 syringe from infusion set maintaining the needle in the skin. […] It is advisable to have this syringe prepared while the technician is inserting the rHuPH20 infusion line. • 15. Remove the syringe cap from the 5 mL syringe with rilpivirine. Remove air and set the dose at 3.2 mL. • 16. Attach rilpivirine filled syringe to the open end of the infusion set. • 17. […] Plasma samples were analysed individually by means of a validated LC-MS/MS method. Pharmacokinetic Data Analysis • The pharmacokinetic profile of the blood plasma samples was evaluated using non-compartmental pharmacokinetic analysis (using individual Cp vs time profiles). Mean plasma concentrations and PK parameters (Cmax, Tmax, t1/2 and AUC values) were measured and the results are provided in Table 1.

[2] = Plasma kinetics in minipigs over 6 months after single subcutaneous dosing, sequential, admixed or control (Example 2); type: in vivo; conditions: minipig, sc, 1830 mg; for AUC(0-t): single s.c. about 1800 mg/6 mL
Method: Nine minipigs with body weights ranging from 17 to 21 kg at the start of the study were used. The minipigs were fasted overnight before dosing. The minipigs were anaesthetized with propofol before dosing. Three minipigs were dosed subcutaneously in the loin with 0.44 mL of the hyaluronidase solution (10,000 U/mL) followed by 1818 mg/6.06 mL of the rilpivirine nanosuspension at the same injection site (treatment group A—sequential).
Three minipigs were dosed subcutaneously in the loin with the 1816 mg/6.5 mL admixed hyaluronidase solution (10,000 U/mL)+rilpivirine suspension (treatment group B— admixed). Three minipigs were dosed subcutaneously in the loin with the 1830 mg/6.1 mL of the control rilpivirine suspension (treatment group C—control). Vetbond 3M surgical sealant was used to seal the injection site to limit any leakage if necessary.
The control rilpivirine suspension was prepared and administered by the following method. • 1. Mix rilpivirine by horizontally shaking the container 30 times over approximately 25 cm within approximately 10 s (a back and forth arm movement=2 times). Ensure well mixed/fully re-suspended. • 2. Flip-off rilpivirine vial flip cap and wipe with isopropyl alcohol wipe. Allow to dry. • 3. Repeat steps 1-2 with a 2nd vial of rilpivirine. If there is a low draw, or unexpected amount of air/settling after draw, a 3rd vial may need to be prepared to ensure the proper dose level can be filled into the syringe. • 4. Attach 18 G transfer needle to 10 mL syringe. • 5. Invert vial and draw>3.2 mL into 10 mL syringe (or as much as can be removed from vial). Injecting 1-2 mL of air will facilitate draw. • Repeat step 5 with the 2nd vial so that at approximately 6.5 mL of drug product is in the 10 mL syringe. Important: see note in (step 3) about preparing a 3rd vial in case of low volume draw. • 6. Detach needle and attach a syringe cap to 10 mL syringe • 7. Wait 5 minutes for bubbles to settle with syringe inverted. • 8. Remove syringe cap, invert syringe prime off air. • 9. Attach a winged infusion set. • 10. Set dose at 6.1 mL after filling infusion set line until liquid forms at tip of needle (0.44 mL undeliverable/dead volume will be in infusion set). • 11. Insert the winged infusion set into the subcutaneous tissue of the target injection site by pinching the skin and inserting the needle at a 30-45 degree angle. • 12. Release the pinch. • 13. Inject over 2 minutes at a constant rate until the syringe plunger bottoms out • 14. Remove the winged infusion set and dispose. • 15. Record any site leakage.
The sequential administration of hyaluronidase solution and then rilpivirine suspension was performed according to the following method. • 1. Flip-off rHuPH20 solution vial flip cap and wipe with isopropyl alcohol wipe. Swirl vial. Allow vial stopper to dry. […]

## Cc1cc(/C=C/C#N)cc(C)c1Nc1ccnc(Nc2ccc(C#N)cc2)n1 [Rilpivirine, 4-[[4-[[4-[(1E)-2-cyanoethenyl]-2,6-dimethylphenyl]amino]-2-pyrimidinyl]amino]benzonitrile]
[1]; single s.c. 900 mg/3 mL, N=3
  λz: 0.0009 ± 0.00009 h⁻¹
[1]; single s.c. 900 mg/3 mL, median, N=3
  Tlast: 2160 h
[1]; plasma, sc, single s.c. 900 mg/3 mL, N=3
  AUC(0-t): 22300 ± 2930 ng·h/mL
[1]; plasma, sc, single s.c. dose in the loin, 900 mg/3 mL rilpivirine suspension, N=3, mean ± SD
  Cmax: 28.5 ± 9.56 ng/mL
[2]; control group C, single animal, at 7 hours post-administration, read-out: Cmax of the excluded outlier minipig
  Cmax: 563 ng/mL
[2]; single s.c. about 1800 mg/6 mL rilpivirine nanosuspension, N=3, control value excludes an outlier minipig, read-out: Mean Cmax
  Cmax: 49 ng/mL
[2]; N=3, read-out: Mean AUC0-1 months
  AUC(0-t): 22000 ng·h/mL
[2]; N=3, read-out: Mean AUC0-6 months
  AUC(0-t): 78300 ng·h/mL
